Source: patent US12569484B2, “Use of phosphodiesterase 5 inhibitor in preparation of medicament for resisting fibrotic diseases” (SHENZHEN HANHUI PHARMACEUTICAL TECHNOLOGY CO., LTD., priority 2019, dated 2026)

System: idiopathic pulmonary fibrosis model rats
Experiment: Bleomycin-induced idiopathic pulmonary fibrosis model
Type: in vivo, male SD rats
Details: IPF rats; for degree of pulmonary fibrosis in the left lung (Ashcroft score): oral once a day 14 days
Description: 48 male SD rats were randomly divided into 6 groups according to their body weights, with 8 rats in each group: a sham operation group (Sham), a model group, a nintedanib-50 mg/kg group (BIBF-50 mg/kg), a tadalafil-5 mg/kg group, a tadalafil-20 mg/kg group, and a sildenafil-20 mg/kg group. All the operations involved in this experiment were implemented under the guiding principle of KCI animal experiment operation SOP. After the animals were purchased, they were fed adaptively for 3-7 days before modeling. After weighing, the animals were anesthetized with isoflurane inhalation. After it was confirmed that the animals were anesthetized, the neck was sterilized, the skin of the neck was cut open, a main trachea was exposed by blunt dissection of muscle, a small incision was made between tracheal rings, a PE-20 tube was inserted into a left main bronchus, bleomycin (dosage: 3 mg/kg, volume: 1.0 ml/kg) was directly injected, and the trachea and skin were sutured. After the operation was completed, the animals were put in an electric blanket at 37° C. to keep them warm until they fully woke up, and the animals were returned into feeding cages for normal feeding after it was confirmed that they could eat and drink freely. • (i) sham operation group and model group: the mice were given normal saline by intragastric administration according to their body weights at a dosage of 1 ml·100 g^-1·d^-1; • (ii) nintedanib-50 mg/kg group (BIBF-50 mg/kg): BIBF was formulated into a 10 mg/ml solution with 0.5% sodium carboxymethyl cellulose, and administrated intragastrically at a dosage of 50 mg·kg^-1·d^-1; • (iii) tadalafil-5 mg/kg group: tadalafil was diluted into a 1 mg/ml solution with 0.5% sodium carboxymethylcellulose, and administrated intragastrically at a dosage of 5 mg·kg^-1·d^-1; • (iv) tadalafil-20 mg/kg group: tadalafil was diluted into a 4 mg/ml solution with 0.5% sodium carboxymethylcellulose, and administrated intragastrically at a dosage of 20 mg·kg^-1·d^-1; • (v) sildenafil-20 mg/kg group: sildenafil was diluted into a 4 mg/ml solution with 0.5% sodium carboxymethylcellulose, and administrated intragastrically at a dosage of 20 mg·kg^-1·d^-1, and • the rats in each group were administrated intragastrically once a day for 14 days in total on the day of modeling. • (1) according to an interspecific dosage conversion method currently adopted by FDA, USA, the conversion coefficient of rats and human was 0.162. Therefore, according to the dosage and time of intragastric administration of tadalafil in the mice in this example, it was inferred that the oral dosage of human was 0.81-3.24 mg·kg^-1·d^-1, and the administration time was 14 days; and according to the dosage and time of intragastric administration of sildenafil in the mice in this example, it was inferred that the oral dosage of human was 3.24 mg·kg^-1·d^-1, and the administration time was 14 days. • (2) according to dosage conversion among different routes of administration in pharmacological experimental methodology, a dosage ratio of intramuscular injection and intraperitoneal injection to oral administration was about 0.3-0.4, so it was inferred that the injection dosage of tadalafil in human was 0.243-1.296 ml·kg^-1·d^-1, and the administration time was 14 days (medicament concentration: 1 mg/ml); and the injection dosage of sildenafil in human was 0.972-1.296 ml·kg^-1·d^-1, and the administration time was 14 days (medicament concentration: 1 mg/ml). 2.4 Experimental Indexes and Determining Methods 2.4.1 Weight and Volume of Left Lung of IPF Rats After 14 days of continuous administration, all animals were euthanized by intraperitoneal injection of a pentobarbital sodium anesthetic (100 mg/kg) to the animals in each group according to a KCI standard operating procedure for animal euthanasia. All animals were perfused with low-temperature PBS systematically, and then perfused systematically with formalin for fixation. […]

[1] = 14 days intragastric, BIBF 50 mg/kg, tadalafil 5 and 20 mg/kg, sildenafil 20 mg/kg
[2] = BIBF 50 mg/kg, tadalafil 5 and 20 mg/kg, sildenafil 20 mg/kg, vs model group, p<0.05

SMILES | alveolar tissue structure in the pulmonary fibrosis lesion of the left lung (HE staining) [1] | alveolar tissue structure in the pulmonary fibrosis lesion of the left lung (Masson Trichrom staining) [1] | pulmonary fibrosis lesion and lesion range in the left lung (H&E and Masson Trichrom staining) (14 days intragastric, BIBF 50 mg/kg, tadalafil 5 and 20 mg/kg, sildenafil 20 mg/kg, vs model group) | scores of injury degrees of bronchioles and pulmonary arterioles in the center and margin of the pulmonary fibrosis lesion (14 days intragastric, BIBF 50 mg/kg, tadalafil 5 and 20 mg/kg, sildenafil 20 mg/kg, vs model group, p<0.05) | percentage of the pulmonary fibrosis degree (Ashcroft score of 3 as a boundary) (14 days intragastric, vs model group, p<0.05) | degree of pulmonary fibrosis in the left lung (Ashcroft score) [2]
COC(=O)c1ccc2c(c1)NC(=O)/C2=C(\Nc1ccc(N(C)C(=O)CN2CCN(C)CC2)cc1)c1ccccc1 [BIBF, nintedanib] | some alveolar structures in the fibrosis lesion were still damaged | some alveolar structures disappeared in the fibrosis lesion | no significant difference | significantly decreased | significantly decreased | significantly improved
CCCc1nn(C)c2c(=O)[nH]c(-c3cc(S(=O)(=O)N4CCN(C)CC4)ccc3OCC)nc12 [sildenafil] | the alveolar structure in the fibrosis lesion was preserved | most of the alveolar structures in the fibrosis lesion were preserved |  |  |  | significantly inhibit
